EPA's ToxRefDB 2

Tests used:
[1] = tested on: rat; conditions: Sub-acute repeat dose toxicity, sprague dawley, Oral, Gavage/Intubation, dose end: 29 day, group: systemic
[2] = tested on: rabbit; conditions: Sub-acute repeat dose toxicity; new zealand white; Oral; Gavage/Intubation; dose end: 5 day; group: systemic; systemic / in life observation / body weight / body weight + systemic / in life observation / clinical signs / altered breathing rate + …
[3] = tested on: dog; conditions: Subchronic oral toxicity in nonrodent, beagle, Gavage/Intubation, dose end: 90 day, group: systemic
[4] = tested on: rat; conditions: Sub-acute repeat dose toxicity; sprague dawley; Oral; Gavage/Intubation; dose end: 9 day; group: systemic; systemic / in life observation / body weight / body weight gain + systemic / in life observation / food consumption / food consumption
[5] = tested on: dog; conditions: Sub-acute repeat dose toxicity; beagle; Oral; Gavage/Intubation; dose end: 29 day; group: systemic; systemic / clinical chemistry / hepatic mixed function oxidase (mfo) assay / hepatic mixed function oxidase (mfo) assay + systemic / in life…
[6] = tested on: dog; conditions: Sub-acute repeat dose toxicity; beagle; Oral; Gavage/Intubation; dose end: 5 day; group: systemic; systemic / in life observation / clinical signs / abnormal feces + systemic / in life observation / clinical signs / emesis
[7] = tested on: dog; conditions: Sub-acute repeat dose toxicity, beagle, Oral, Gavage/Intubation, dose end: 5 day, group: systemic
[8] = tested on: rat; conditions: Sub-acute repeat dose toxicity; sprague dawley; Oral; Gavage/Intubation; dose end: 29 day; group: systemic; systemic / in life observation / clinical signs / salivation
[9] = tested on: primate; conditions: Sub-acute repeat dose toxicity, Oral, Gavage/Intubation, dose end: 10 day, group: systemic
[10] = tested on: rat; conditions: Chronic toxicity, sprague dawley, Oral, Gavage/Intubation, dose end: 180 day, group: systemic
[11] = tested on: rat; conditions: Sub-acute repeat dose toxicity, sprague dawley, Oral, Gavage/Intubation, dose end: 14 day, group: systemic
[12] = tested on: primate; conditions: Sub-acute repeat dose toxicity, Oral, Gavage/Intubation, dose end: 28 day, group: systemic
[13] = tested on: rat; conditions: Prenatal developmental toxicity study, sprague dawley, Oral, Gavage/Intubation, dose end: 18 GD
[14] = tested on: rabbit; conditions: Sub-acute repeat dose toxicity, Oral, Gavage/Intubation, dose end: 5 day, group: systemic
[15] = tested on: rat; conditions: Fertility (Segment I), Oral, Gavage/Intubation, dose end: 1 generation, group: parental
[16] = tested on: rat; conditions: Fertility (Segment I), Oral, Gavage/Intubation, dose end: 1 generation, group: parental; remark: listed apart in the source
[17] = tested on: rabbit; conditions: Prenatal developmental toxicity study, new zealand white, Oral, Gavage/Intubation, dose end: 19 GD
[18] = systemic / clinical chemistry / 5' nucleotidase / 5' nucleotidase + systemic / clinical chemistry / albumin / albumin + systemic / clinical …
[19] = systemic / clinical chemistry / cholesterol / cholesterol + systemic / organ weight / liver / absolute + systemic / pathology microscopic / …
[20] = systemic / in life observation / clinical signs / abnormal feces + systemic / organ weight / liver / absolute + systemic / pathology …
[21] = systemic / in life observation / clinical signs / abnormal feces
[22] = systemic / in life observation / clinical signs / abnormal feces + systemic / in life observation / clinical signs / emesis
[23] = systemic / in life observation / clinical signs / abnormal feces + systemic / in life observation / clinical signs / salivation
[24] = systemic / in life observation / clinical signs / abnormal feces + systemic / in life observation / clinical signs / salivation + systemic…
[25] = systemic / clinical chemistry / 5' nucleotidase / 5' nucleotidase + systemic / clinical chemistry / alanine aminotransferase (alt/sgpt) / …
[26] = systemic / in life observation / body weight / body weight gain + systemic / in life observation / food consumption / food consumption
[27] = systemic / in life observation / body weight / body weight gain + systemic / in life observation / clinical signs / dehydration + systemic…
[28] = systemic / in life observation / clinical signs / salivation
[29] = systemic / clinical chemistry / [other] / [other] + systemic / in life observation / clinical signs / abnormal feces + systemic / in life …
[30] = group: developmental, developmental / developmental malformation / bone / delayed ossification + systemic / in life observation / body weight / fetal weight
[31] = group: maternal, systemic / in life observation / clinical signs / salivation
[32] = group: maternal, systemic / in life observation / clinical signs / salivation + systemic / in life observation / body weight / body weight gain
[33] = systemic / in life observation / body weight / body weight + systemic / in life observation / clinical signs / abnormal feces + systemic / …
[34] = systemic / in life observation / clinical signs / abnormal respiratory sounds + systemic / in life observation / clinical signs / fur (…
[35] = systemic / in life observation / clinical signs / fur (altered appearance) + systemic / in life observation / clinical signs / salivation
[36] = group: developmental, systemic / in life observation / body weight / fetal weight
[37] = group: maternal, systemic / in life observation / body weight / body weight + systemic / in life observation / body weight / body weight gain + systemic / in…

NC(=O)N(O)[C@@H]1C=C[C@H](Oc2cccc(Oc3ccc(F)cc3)c2)C1
LOAEL [1, 18]: > 400 mg/kg/day
NEL [1, 18]: 10 mg/kg/day
NOAEL [1, 18]: ≥ 400 mg/kg/day
LEL [1, 19]: 40 mg/kg/day
LEL [2]: 400 mg/kg/day
LOAEL [2]: > 400 mg/kg/day
NEL [2]: 40 mg/kg/day
NOAEL [2]: ≥ 400 mg/kg/day
NEL [3, 19]: 5 mg/kg/day
LOAEL [3, 20]: > 125 mg/kg/day
NOAEL [3, 20]: ≥ 125 mg/kg/day
LEL ([3]; systemic / organ weight / liver / absolute): 25 mg/kg/day
LEL [4]: 400 mg/kg/day
LOAEL [4]: > 400 mg/kg/day
NEL [4]: 200 mg/kg/day
NOAEL [4]: ≥ 400 mg/kg/day
LEL [5]: 125 mg/kg/day
LOAEL [5]: > 125 mg/kg/day
NEL [5]: 25 mg/kg/day
NOAEL [5]: ≥ 125 mg/kg/day
LEL [6]: 250 mg/kg/day
LOAEL [6]: > 500 mg/kg/day
NEL [6]: < 250 mg/kg/day
NOAEL [6]: ≥ 500 mg/kg/day
LEL [7, 21]: 5 mg/kg/day
NEL [7, 21]: < 5 mg/kg/day
LOAEL [7, 22]: > 125 mg/kg/day
NOAEL [7, 22]: ≥ 125 mg/kg/day

CC(C)(O)c1coc(S(=O)(=O)NC(=O)Nc2c3c(cc4c2CCC4)CCC3)c1
LEL [8]: 100 mg/kg/day
LOAEL [8]: > 500 mg/kg/day
NEL [8]: 10 mg/kg/day
NOAEL [8]: ≥ 500 mg/kg/day
LEL [9, 23]: 10 mg/kg/day
NEL [9, 23]: < 10 mg/kg/day
LOAEL [9, 24]: > 200 mg/kg/day
NOAEL [9, 24]: ≥ 200 mg/kg/day
LOAEL [10, 25]: > 500 mg/kg/day
NOAEL [10, 25]: ≥ 500 mg/kg/day
LEL [10, 26]: 25 mg/kg/day
NEL [10, 26]: < 25 mg/kg/day
LOAEL [11, 27]: > 1000 mg/kg/day
NOAEL [11, 27]: ≥ 1000 mg/kg/day
LEL [11, 28]: 100 mg/kg/day
NEL [11, 28]: < 100 mg/kg/day
LOAEL [12, 29]: > 200 mg/kg/day
NEL [12, 29]: 2 mg/kg/day
NOAEL [12, 29]: ≥ 200 mg/kg/day
LEL [12, 21]: 50 mg/kg/day
LEL [13, 30]: 500 mg/kg/day
LOAEL [13, 30]: > 500 mg/kg/day
NOAEL [13, 30]: ≥ 500 mg/kg/day
LEL [13, 31]: 50 mg/kg/day
NEL [13, 31]: < 50 mg/kg/day
LOAEL [13, 32]: > 500 mg/kg/day
NOAEL [13, 32]: ≥ 500 mg/kg/day
LOAEL [14, 33]: > 500 mg/kg/day
NEL [14, 33]: 50 mg/kg/day
NOAEL [14, 33]: ≥ 500 mg/kg/day
LEL ([14]; systemic / in life observation / food consumption / food consumption): 250 mg/kg/day
LOAEL [15, 34]: > 500 mg/kg/day
NOAEL [15, 34]: ≥ 500 mg/kg/day
LEL [15, 28]: 25 mg/kg/day
NEL [15, 28]: < 25 mg/kg/day
LOAEL [16, 35]: > 500 mg/kg/day
NOAEL [16, 35]: ≥ 500 mg/kg/day
LEL [16, 28]: 25 mg/kg/day
NEL [16, 28]: < 25 mg/kg/day
LEL [17, 36]: 250 mg/kg/day
LOAEL [17, 36]: > 250 mg/kg/day
NOAEL [17, 36]: ≥ 250 mg/kg/day
LEL [17, 37]: 250 mg/kg/day
LOAEL [17, 37]: > 250 mg/kg/day
NEL [17, 37]: 100 mg/kg/day
NOAEL [17, 37]: ≥ 250 mg/kg/day
